According to US20250170106A1, “USE OF SU3327 IN PREPARATION OF MEDICAMENT FOR ENHANCING EFFICACY OF POLYMYXIN AGAINST BACTERIAL INFECTION” (XIAMEN HANLIXIN PHARMACEUTICAL CO., LTD., priority 2022, published 2025):

How the values were obtained:
K. pneumoniae 1202-45-5 [1] = assay: Thigh infection model of neutropenic BALB/c mice infected with drug resistant bacteria; type: in vivo; conditions: 10 mg/kg body weight each drug, intraperitoneal, 24 hour post infection; for bacteria loading in the thigh of the mice: twice 8 h apart, K. pneumoniae 1202-45-5
Procedure: In order to avoid the influence of mice's own immunity on the experiments, all mice were administered in advance with cyclophosphamide twice, four days and one day before infection, respectively, 100 mg/kg intraperitoneal injection each time, resulting in neutropenia and immune deficiency in the mice. 24 female BALB/c mice (weighing about 20 g) aged 6-8 weeks old were prepared. K. pneumoniae 1202-45-5 in logarithmic phase was re-suspended with a PBS buffer to prepare a suspension at the concentration of 1×10^7 CFU/mL; in the mice, the total amount of bacteria injected into the thigh of each mouse was 1×10^6 CFUs in the end. Then they were randomly divided into model control group (solvent treatment group), Polymyxin E treatment group (10 mg/kg body weight), SU3327 treatment group (10 mg/kg body weight), and combined treatment group of SU3327 (10 mg/kg body weight)+Polymyxin E (10 mg/kg body weight) (6 mice in each group). The treatments are detailed as follows:
(§1) Solvent control treatment group: 0.1 mL of the suspension of K. pneumoniae 1202-45-5 was intramuscularly injected into a mouse in the thigh on the right side of its abdominal cavity; one hour later, the mouse was intraperitoneally injected with 200 μL of a PBS buffer.
as §1, with “Polymyxin E” for “Solvent control”, “solution of drug, Polymyxin E (1 mg/mL); the final dose was 10 mg/kg body weight;” for “PBS buffer.”
as §1, with “SU3327” for “Solvent control”, “solution of drug, SU3327 (1 mg/mL); the final dose was 10 mg/kg body weight; […]” for “PBS buffer.”

[2] = tested on: Klebsiella pneumoniae 1202 (K. pneumoniae 1202); assay: MIC / checkerboard assay; type: cell-based; conditions: for MIC after use in combination: Polymyxin E + SU3327 in combination, checkerboard; for MIC: drug alone
Excerpt: (§2) The strains used in the tests, the strain Escherichia coli ATCC 25922 (E. coli 25922) and the strain Staphylococcus aureus ATCC 29213 (S. aureus 29213), were purchased from China Veterinary Culture Collection Center. Methicillin Resistant Staphylococcus Aureus USA300 (ATCC BAA-1717) was purchased from American Type Culture Collection. The strains used in the other experiments, the strains Escherichia coli B2 (E. coli B2), Escherichia coli GZP08-8 (E. coli GZP08-8), Klebsiella pneumoniae 1202 (K. pneumoniae 1202), Klebsiella pneumoniae 1202-45-5 (K. pneumoniae 1202-45-5), Salmonella 1-5 (Salmonella 1-5), and Shigella Y (Shigella Y) were all from National Center for Veterinary Drug Safety Evaluation of China Agricultural University, with Escherichia coli B2 (E. coli B2), Escherichia coli GZP08-8 (E. coli GZP08-8), Klebsiella pneumoniae 1202-45-5 (K. pneumoniae 1202-45-5), and Salmonella 1-5 (Salmonella 1-5) as polymyxin resistant strains containing MCR-1. Klebsiella pneumoniae 1202 (K. pneumoniae 1202) and Shigella Y (Shigella Y) were strains clinically sensitive to colistin.
(§3) The MIC of SU3327 administered alone was detected with dilution by factors. Subsequently, tests were performed with SU3327 alone, Polymyxin E (Colistin) alone, and in combination, respectively, in sterile, 96-well microplates according to checkerboard assays for the joint inhibitory activities against the above-mentioned strains, and further Fractional Inhibitory Concentration Index (FICI) was calculated. FICI of SU3327 and Polymyxin E=MIC (Polymyxin E in combination)/MIC (Polymyxin E)+MIC (SU3327 in combination)/MIC (SU3327 alone). If FICI≤0.5, synergy was identified; if 0.5<FICI≤1, an additive effect was identified; and if […], an irrelevant effect was identified.

Shigella Y = assay: MIC / checkerboard assay; type: cell-based; conditions: for MIC after use in combination: Polymyxin E + SU3327 in combination, checkerboard
Excerpt: as §2, §3

[3] = tested on: Klebsiella pneumoniae 1202-45-5 (K. pneumoniae 1202-45-5); assay: MIC / checkerboard assay; type: cell-based; conditions: for MIC after use in combination: Polymyxin E + SU3327 in combination, checkerboard; for MIC: drug alone
Excerpt: as §2, §3

[4] = tested on: Escherichia coli strain ATCC 25922 (E. coli 25922); assay: MIC / checkerboard assay; type: cell-based; conditions: for MIC after use in combination: Polymyxin E + SU3327 in combination, checkerboard; for MIC: drug alone
Excerpt: as §2, §3

Salmonella 1-5 = assay: MIC / checkerboard assay; type: cell-based; conditions: for MIC after use in combination: Polymyxin E + SU3327 in combination, checkerboard
Excerpt: as §2, §3

[5] = tested on: Staphylococcus aureus strain ATCC 29213 (S. aureus 29213); assay: MIC / checkerboard assay; type: cell-based; conditions: for MIC after use in combination: Polymyxin E + SU3327 in combination, checkerboard; for MIC: drug alone
Excerpt: as §2, §3

[6] = tested on: Staphylococcus Aureus USA300 (S. aureus USA300); assay: MIC / checkerboard assay; type: cell-based; conditions: for MIC after use in combination: Polymyxin E + SU3327 in combination, checkerboard; for MIC: drug alone
Excerpt: as §2, §3

[7] = tested on: Escherichia coli GZP08-8 (E. coli GZP08-8); assay: MIC / checkerboard assay; type: cell-based; conditions: for MIC after use in combination: Polymyxin E + SU3327 in combination, checkerboard; for MIC: drug alone
Excerpt: as §2, §3

[8] = tested on: Escherichia coli B2 (E. coli B2) containing MCR-1; assay: MIC / checkerboard assay; type: cell-based; conditions: for MIC after use in combination: Polymyxin E + SU3327 in combination, checkerboard; for MIC: drug alone
Excerpt: as §2, §3

JNK = conditions: substrate-competitive JNK inhibitor; cited from earlier work
Akt = conditions: cited from earlier work
JNK and JIP = conditions: read-out: IC50 (protein interaction between JNK and JIP); cited from earlier work
K. pneumoniae 1202 = assay: In vitro bacterial growth (bactericidal) curve; type: cell-based, Klebsiella pneumoniae; conditions: continuous treatment for 24 h, Polymyxin E 0.25 μg/mL, SU3327 10 μg/mL, alone or combined
Procedure: (§4) 6.0 g powdered beef extract, 1.5 g soluble starch, 17.5 g acid hydrolysate of casein, and 17.0 g agar were weighed, to which 900 mL distilled water was added, with the pH adjusted to 7.3, and the volume to 1000 mL. The mixture was subject to autoclave at 121° C. for 15 minutes, and then cooled to 50° C., poured into a sterile plate, and dried for later use.
(§5) Following culturing of K. pneumoniae 1202 and K. pneumoniae 1202-45-5 in BHI broth for 6-8 hours, the bacteria were diluted to a concentration of 10^6 colony count using a turbidimeter.
(§6) For K. pneumoniae 1202, drug treatment concentrations were set as follows: Polymyxin E (0.25 μg/mL), SU3327 (10 μg/mL), SU3327 (10 μg/mL)+Polymyxin E (0.25 μg/mL); the bacteria in control group were treated with a solvent, 0.1% DMSO. For K. pneumoniae 1202-45-5, drug treatment concentrations were set as follows: Polymyxin E (1 μg/mL), SU3327 (20 μg/mL), SU3327 (20 μg/mL)+Polymyxin E (1 μg/mL). 100 μL of a bacterial solution was applied on an agar plate at 1 h, 3 h, 6 h, 12 h and 24 h post drug treatment, respectively, and cultured for at least 16 h for a colony count.

K. pneumoniae 1202-45-5 [9] = assay: In vitro bacterial growth (bactericidal) curve; type: cell-based, Klebsiella pneumoniae; conditions: continuous treatment for 24 h, Polymyxin E 1 μg/mL, SU3327 20 μg/mL, alone or combined
Procedure: as §4, §5, §6

p38α = p38α (Homo sapiens, UniProt Q16539); conditions: cited from earlier work
p38α, sequence (Q16539 whole entry): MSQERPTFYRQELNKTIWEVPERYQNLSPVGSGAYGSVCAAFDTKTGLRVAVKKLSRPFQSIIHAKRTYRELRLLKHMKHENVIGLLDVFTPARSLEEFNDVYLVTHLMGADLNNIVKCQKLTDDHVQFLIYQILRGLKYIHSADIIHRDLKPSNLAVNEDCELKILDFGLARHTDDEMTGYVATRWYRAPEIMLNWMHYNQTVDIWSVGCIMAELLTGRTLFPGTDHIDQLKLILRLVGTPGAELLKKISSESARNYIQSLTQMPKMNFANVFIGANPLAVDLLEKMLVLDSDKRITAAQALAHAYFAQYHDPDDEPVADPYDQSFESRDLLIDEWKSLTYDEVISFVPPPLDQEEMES

Row | Compound | bacteria loading in the thigh of the mice (K. pneumoniae 1202-45-5 [1]) [Log 10 CFU/mL] | MIC after use in combination [2] [µg/mL] | MIC [2] [µg/mL] | MIC after use in combination (Shigella Y) [µg/mL] | MIC after use in combination [3] [µg/mL] | MIC [3] [µg/mL] | MIC after use in combination [4] [µg/mL] | MIC [4] [µg/mL] | MIC after use in combination (Salmonella 1-5) [µg/mL] | MIC after use in combination [5] [µg/mL] | MIC [5] | MIC after use in combination [6] [µg/mL] | MIC [6] | MIC after use in combination [7] [µg/mL] | MIC [7] [µg/mL] | MIC after use in combination [8] [µg/mL] | MIC [8] [µg/mL] | bacterial colony counts (K. pneumoniae 1202) [Log 10 CFU/mL] | bacterial colony counts (K. pneumoniae 1202-45-5 [9]) [Log 10 CFU/mL] | further results
1 | Nc1nnc(Sc2ncc([N+](=O)[O-])s2)s1 [SU3327] | 6.55 | 2.5 | 20 | 2.5 | 5 | 20 | 5 | 10 | 2.5 | 2.5 | 5 µg/mL | 1.25 | 5 µg/mL | 2.5 | 10 | 2.5 | 20 | 8.35 | 6.65 | MIC (Shigella Y; drug alone): 5 µg/mL; MIC (Salmonella 1-5; drug alone): 20 µg/mL; IC50 (JNK): 700 nM; activity for Akt kinase (Akt): low activity; IC50 (JNK and JIP): 239 nM; activity for p38α kinase (p38α): low activity
2 | Polymyxin E | 6.82 | 0.0625 | 1 | 0.032 | 0.25 | 16 | 0.0625 | 0.125 | 1 | 64 | more than 128 μg/mL | 32 | more than 128 μg/mL | 0.25 | 16 | 0.5 | 8 | 8.9 | 9.3 | bacteria loading in the thigh compared with solvent control group (K. pneumoniae 1202-45-5 [1]): not significantly different
